Assay results reported in patent US4515942A, “Antibiotics KA-6606 XII, XIII, XV, XVI and XVII” (Kowa Company, Ltd., priority 1980, dated 1985).

Key:
Solubility in solvents = type: physicochemical
Serratia marcescens NHL = assay: disc plate method (Table 2); type: cell-based; conditions: paper disc 8 mm; for zone of inhibition at 1000 µg/mL / zone of inhibition at 10000 µg/mL: Serratia marcescens, read-out: Inhibition zone (diameter); for zone of inhibition at 1000 µg/mL / Inhibition zone (diameter): 1 mg/ml; for zone of inhibition at 10000 µg/mL: 10 mg/ml
Excerpt: (§1) Tables 1 and 2 show the antibacterial spectra of the antibiotics KA-6606 VII to KA-6606 XVII against various bacteria, determined by the disc plate method, in comparison with the KA-6606 II substance. Each of the chemicals is used as impregnated in a paper disc having a diameter of 8 mm.

[1] = test system: Bacillus subtilis ATCC 6633; assay: disc plate method (Table 2); type: cell-based; conditions: paper disc 8 mm; for zone of inhibition at 1000 µg/mL / zone of inhibition at 10000 µg/mL: Bacillus subtilis, read-out: Inhibition zone (diameter); for zone of inhibition at 1000 µg/mL: ATCC6633, 1 mg/ml; for zone of inhibition at 1000 µg/mL / Inhibition zone (diameter): Bacillus subtilis ATCC 6633 (Table 2); for zone of inhibition at 10000 µg/mL: ATCC6633, 10 mg/ml, Bacillus subtilis ATCC 6633; for Inhibition zone (diameter): 1 mg/ml
Excerpt: as §1

[2] = test system: Klebsiella pneumoniae PCI 602; assay: disc plate method (Table 2); type: cell-based; conditions: paper disc 8 mm; for zone of inhibition at 1000 µg/mL: Klebsiella pneumoniae, PCI602, 1 mg/ml, read-out: Inhibition zone (diameter); for Inhibition zone (diameter): 1 mg/ml
Excerpt: as §1

[3] = test system: Staphylococcus aureus 209D-JC-1; assay: disc plate method (Table 2); type: cell-based; conditions: paper disc 8 mm; for zone of inhibition at 1000 µg/mL / zone of inhibition at 10000 µg/mL: Staphylococcus aureus, read-out: Inhibition zone (diameter); for zone of inhibition at 1000 µg/mL: 209DJC1, 1 mg/ml; for zone of inhibition at 10000 µg/mL: 209DJC1, 10 mg/ml; for Inhibition zone (diameter): 1 mg/ml
Excerpt: as §1

Proteus inconstans [4] = assay: disc plate method (Table 2); type: cell-based; conditions: 1 mg/ml, paper disc 8 mm, Proteus inconstans (Table 2); for zone of inhibition at 1000 µg/mL: Providencia alcalifaciens, read-out: Inhibition zone (diameter)
Excerpt: as §1

Proteus vulgaris OX-107 = assay: disc plate method (Table 2); type: cell-based; conditions: paper disc 8 mm; for zone of inhibition at 1000 µg/mL / zone of inhibition at 10000 µg/mL: Proteus vulgaris, read-out: Inhibition zone (diameter); for zone of inhibition at 1000 µg/mL: OX107, 1 mg/ml; for zone of inhibition at 10000 µg/mL: OX107, 10 mg/ml; for Inhibition zone (diameter): 1 mg/ml
Excerpt: as §1

[5] = test system: Escherichia coli NIHJ JC-2; assay: disc plate method (Table 2); type: cell-based; conditions: paper disc 8 mm; for zone of inhibition at 1000 µg/mL / zone of inhibition at 10000 µg/mL: Escherichia coli, read-out: Inhibition zone (diameter); for zone of inhibition at 1000 µg/mL: NIHJJC2, 1 mg/ml; for zone of inhibition at 10000 µg/mL: NIHJJC2, 10 mg/ml; for Inhibition zone (diameter): 1 mg/ml
Excerpt: as §1

[6] = test system: Pseudomonas aeruginosa NCTC 10490; assay: disc plate method (Table 2); type: cell-based; conditions: paper disc 8 mm; for zone of inhibition at 1000 µg/mL / zone of inhibition at 10000 µg/mL: Pseudomonas aeruginosa, read-out: Inhibition zone (diameter); for zone of inhibition at 1000 µg/mL: NCTC10490, 1 mg/ml; for zone of inhibition at 10000 µg/mL: NCTC10490, 10 mg/ml; for Inhibition zone (diameter): 1 mg/ml
Excerpt: as §1

Stability = type: physicochemical; conditions: pH range in which stable
[7] = test system: Bacillus subtilis ATCC 6633; assay: disc plate method (Table 1); type: cell-based; conditions: paper disc 8 mm, Bacillus subtilis ATCC 6633 (Table 1)
Excerpt: as §1

Pseudomonas aeruginosa = assay: disc plate method (Table 1); type: cell-based; conditions: 1 mg/ml, paper disc 8 mm, read-out: Inhibition zone (diameter)
Excerpt: as §1

[8] = test system: Staphylococcus aureus 209P; assay: disc plate method (Table 1); type: cell-based; conditions: 1 mg/ml, paper disc 8 mm
Excerpt: as §1

Proteus inconstans [9] = assay: disc plate method (Table 1); type: cell-based; conditions: 1 mg/ml; paper disc 8 mm; Proteus inconstans (Table 1)
Excerpt: as §1

Escherichia coli NIHJ = assay: disc plate method (Table 1); type: cell-based; conditions: 1 mg/ml, paper disc 8 mm
Excerpt: as §1

Serratia marcescens = assay: disc plate method (Table 1); type: cell-based; conditions: 1 mg/ml, paper disc 8 mm
Excerpt: as §1

Klebsiella pneumoniae = assay: disc plate method (Table 1); type: cell-based; conditions: 1 mg/ml, paper disc 8 mm
Excerpt: as §1

Proteus vulgaria = assay: disc plate method (Table 1); type: cell-based; conditions: 1 mg/ml, paper disc 8 mm
Excerpt: as §1

[10] = read-out: Inhibition zone (diameter)

| SMILES | Solubility in solvents: chloroform (Solubility in solvents) | Solubility in solvents: ethyl acetate (Solubility in solvents) | Solubility in solvents: methanol (Solubility in solvents) | Solubility in solvents: water (Solubility in solvents) | zone of inhibition at 1000 µg/mL (Serratia marcescens NHL) | zone of inhibition at 1000 µg/mL [1] | zone of inhibition at 1000 µg/mL [2] | zone of inhibition at 1000 µg/mL [3] | zone of inhibition at 1000 µg/mL (Proteus vulgaris OX-107) | zone of inhibition at 1000 µg/mL [5] | zone of inhibition at 1000 µg/mL [6] | Stability (stable at pH) (Stability) | zone of inhibition at 1000 µg/mL (Proteus inconstans [4]) | also measured |
| --- | --- | --- | --- | --- | --- | --- | --- | --- | --- | --- | --- | --- | --- | --- |
| CNC1C(O)CC(N)C(OC2OC(C(C)N)CCC2N)C1O (centres unmarked) [KA-6606 IX] | Insoluble | Insoluble | Easily soluble | Easily soluble | 16 mm | 23.8 mm | 13.7 mm | 22.9 mm | 15.2 mm | 16.7 mm | 15.9 mm | 2-10 pH | – | Inhibition zone (diameter) (Proteus inconstans [4]): 9.4 mm |
| CNC1C(OC)CC(N)C(OC2OC(C(C)N)CCC2N)C1O (centres unmarked) [KA-6606 VIII] | Insoluble | Insoluble | Easily soluble | Easily soluble | – | – | – | – | – | – | – | 2-10 pH | – | Inhibition zone (diameter) ([7]; 1 mg/ml): 26.2 mm; zone of inhibition at 1000 µg/mL (Pseudomonas aeruginosa): 17.3 mm; Inhibition zone (diameter) [8]: 13.5 mm; Inhibition zone (diameter) (Proteus inconstans [9]): 18.9 mm; Inhibition zone (diameter) (Escherichia coli NIHJ): 21.9 mm; Inhibition zone (diameter) (Serratia marcescens): 19.7 mm; Inhibition zone (diameter) (Klebsiella pneumoniae): 18.8 mm; Inhibition zone (diameter) (Proteus vulgaria): 23.3 mm |
| CNC1C(OC)CC(N)C(OC2OC(C(C)N)CCC2N)C1O (centres unmarked) [KA-6606 VII] | Insoluble | Insoluble | Easily soluble | Easily soluble | – | – | – | – | – | – | – | 2-10 pH | – | zone of inhibition at 1000 µg/mL ([7]; Bacillus subtilis, ATCC6633, 1 mg/ml, read-out: Inhibition zone (diameter)): 17.8 mm; zone of inhibition at 1000 µg/mL ([8]; Staphylococcus aureus, 209P, read-out: Inhibition zone (diameter)): 9.3 mm; Inhibition zone (diameter) (Proteus inconstans [9]): 9.0 mm; zone of inhibition at 1000 µg/mL (Escherichia coli NIHJ; Escherichia coli, read-out: Inhibition zone (diameter)): 17.5 mm; zone of inhibition at 1000 µg/mL (Serratia marcescens; [10]): 15.1 mm; Inhibition zone (diameter) (Klebsiella pneumoniae): 9.0 mm; zone of inhibition at 1000 µg/mL (Proteus vulgaria; [10]): 20.1 mm |
| CNC1C(OC)CC(N)C(OC2OC(C(C)N)=CCC2N)C1O (centres unmarked) [KA-6606 XIII] | Insoluble | Insoluble | Easily soluble | Easily soluble | 18.5 mm | 22.6 mm | 17 mm | 22 mm | 18.5 mm | 18.4 mm | 14.8 mm | 2-10 pH | 14.3 mm | – |
| CNC1C(O)CC(N)C(OC2OC(CO)C(O)C(O)C2N)C1O (centres unmarked) [KA-6606 XII] | Insoluble | Insoluble | – | Easily soluble | – | – | – | – | – | – | – | 2-10 pH | – | zone of inhibition at 10000 µg/mL (Serratia marcescens NHL): 9.8 mm; zone of inhibition at 10000 µg/mL [1]: 17.7 mm; zone of inhibition at 10000 µg/mL [3]: 16.8 mm; zone of inhibition at 10000 µg/mL (Proteus vulgaris OX-107): 9.3 mm; zone of inhibition at 10000 µg/mL [5]: 9.2 mm; zone of inhibition at 10000 µg/mL [6]: 9.3 mm |
| CNC1C(OC)CC(N)C(OC2OC(CN)CCC2N)C1O (centres unmarked) [KA-6606 XIV] | Insoluble | Insoluble | Easily soluble | Easily soluble | 13.5 mm | 19.1 mm | 9.5 mm | 17.1 mm | 12 mm | 11.8 mm | 9.2 mm | 2-10 pH | 8.5 mm | – |
| CNC1C(O)CC(N)C(OC2OC(C(C)N)CCC2N)C1O (centres unmarked) [KA-6606 XI] | Insoluble | Insoluble | Easily soluble | Easily soluble | – | – | – | – | – | – | – | 2-10 pH | – | Inhibition zone (diameter) (Serratia marcescens NHL): 16.8 mm; Inhibition zone (diameter) [1]: 23.5 mm; Inhibition zone (diameter) [2]: 18.5 mm; Inhibition zone (diameter) [3]: 25.2 mm; Inhibition zone (diameter) (Proteus inconstans [4]): 19.0 mm; Inhibition zone (diameter) (Proteus vulgaris OX-107): 15.1 mm; Inhibition zone (diameter) [5]: 18.0 mm; Inhibition zone (diameter) [6]: 16.6 mm |
| CNC1C(OC)CC(NC(N)=O)C(OC2OC(C(C)N)CCC2N)C1O (centres unmarked) [KA-6606 XVII] | Insoluble | Insoluble | Easily soluble | Easily soluble | – | – | – | – | – | – | – | 2-10 pH | – | zone of inhibition at 10000 µg/mL (Serratia marcescens NHL): 13.6 mm; zone of inhibition at 10000 µg/mL [1]: 17.3 mm; zone of inhibition at 10000 µg/mL [3]: 14.2 mm; zone of inhibition at 10000 µg/mL (Proteus vulgaris OX-107): 16.8 mm; zone of inhibition at 10000 µg/mL [5]: 10.7 mm; zone of inhibition at 10000 µg/mL [6]: 10.1 mm |
| CNC1C(OC)CC(N)C(OC2OC(C(C)N)CCC2NC(N)=O)C1O (centres unmarked) [KA-6606 XVI] | Insoluble | Insoluble | Easily soluble | Easily soluble | 16.3 mm | 20.6 mm | 8.5 mm | 16.3 mm | 15.8 mm | 16.2 mm | 11.8 mm | 2-10 pH | 8.9 mm | – |
| CNC1C(OC)CC(N)C(OC2OC(CN)=CCC2N)C1O (centres unmarked) [KA-6606 XV] | Insoluble | Insoluble | Easily soluble | Easily soluble | 18.2 mm | 23.1 mm | 18.6 mm | 23.3 mm | 16.4 mm | 18.5 mm | 16.2 mm | 2-10 pH | 9 mm | – |
| CNC1C(O)CC(N)C(OC2OC(C(C)N)CCC2N)C1O (centres unmarked) [KA-6606 X] | Insoluble | Insoluble | Easily soluble | Easily soluble | – | – | – | – | – | – | – | 2-10 pH | – | Inhibition zone (diameter) (Serratia marcescens NHL): 16.5 mm; Inhibition zone (diameter) [1]: 22.5 mm; Inhibition zone (diameter) [2]: 17.4 mm; Inhibition zone (diameter) [3]: 23.3 mm; Inhibition zone (diameter) (Proteus inconstans [4]): 11.9 mm; Inhibition zone (diameter) (Proteus vulgaris OX-107): 16.6 mm; Inhibition zone (diameter) [5]: 16.3 mm; Inhibition zone (diameter) [6]: 13.8 mm |
